Test [1] deals with T1, recombinant human Meningioma Expressed Antigen 5 (MGEA5), also referred to as O-GlcNAcase (OGA) (Homo sapiens, UniProt O60502).
T1 construct: Full length OGA enzyme was purchased at OriGene (cat # TP322411); purchased OriGene TP322411
T1 sequence (O60502 1-916): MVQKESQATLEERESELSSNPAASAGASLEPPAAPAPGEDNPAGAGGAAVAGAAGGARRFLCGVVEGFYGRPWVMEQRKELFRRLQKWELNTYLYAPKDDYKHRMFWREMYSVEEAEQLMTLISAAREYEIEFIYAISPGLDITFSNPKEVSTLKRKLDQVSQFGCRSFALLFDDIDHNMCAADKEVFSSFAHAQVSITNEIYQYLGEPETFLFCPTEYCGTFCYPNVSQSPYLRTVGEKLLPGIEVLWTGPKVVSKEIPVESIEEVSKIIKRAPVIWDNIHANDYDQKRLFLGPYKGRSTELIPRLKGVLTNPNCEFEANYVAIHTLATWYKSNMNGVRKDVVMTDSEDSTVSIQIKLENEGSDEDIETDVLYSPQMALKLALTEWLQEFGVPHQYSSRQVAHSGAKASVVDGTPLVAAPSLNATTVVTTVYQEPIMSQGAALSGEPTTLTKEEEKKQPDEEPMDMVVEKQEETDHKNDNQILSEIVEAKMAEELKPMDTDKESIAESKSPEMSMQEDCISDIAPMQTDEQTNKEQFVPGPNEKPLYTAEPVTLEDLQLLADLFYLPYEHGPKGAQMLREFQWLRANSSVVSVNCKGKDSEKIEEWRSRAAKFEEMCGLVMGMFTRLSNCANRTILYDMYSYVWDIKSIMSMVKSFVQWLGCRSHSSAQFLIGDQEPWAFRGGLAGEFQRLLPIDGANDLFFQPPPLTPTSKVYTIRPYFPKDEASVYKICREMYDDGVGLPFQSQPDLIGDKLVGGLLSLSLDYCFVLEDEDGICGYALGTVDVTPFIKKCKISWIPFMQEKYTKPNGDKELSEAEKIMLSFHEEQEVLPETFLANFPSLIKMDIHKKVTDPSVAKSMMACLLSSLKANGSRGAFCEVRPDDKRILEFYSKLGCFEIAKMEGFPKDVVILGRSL
As to the kind of experiment: OGA biochemical assay: inhibition of FM-GlcNAc hydrolysis, fluorescence; protocol A (10 nM OGA, 1 h) or protocol B (2 nM OGA, 6 h). The note with it: Enzymatic protocol B (2 nM OGA, 6 h); for IC50: read-out: Enzymatic hOGA, pIC50 (converted). The method, boiled down: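 Full-length human OGA in 200 mM citrate/phosphate pH 7.2 with 0.005% Tween-20, compound pre-incubated 60 min at RT, then 100 uM FM-GlcNAc (final); 10 nM enzyme for 1 h or 2 nM for 6 h at RT. Stopped with pH 11.0 carbonate; fluorescein read at ex 485/em 538 nm. IC50 and Hill coefficient from curve fit.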

Test [2] concerns OGA in HEK293 cells inducible for P301L mutant human Tau (isoform 2N4R). Nature of the test: OGA cellular assay: immunocytochemical detection of O-GlcNAcylated proteins (CTD110.6 antibody) after 6 h incubation. The settings on record: for Emax / EC50: Homo sapiens, HEK293, 6 h; for Emax / Cellular Emax (%): maximum = Thiamet G 200 uM; for EC50: read-out: Cellular hOGA, pEC50 (converted). It is filed as cell-based. The procedure, abridged: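 Low-glucose medium, 6 h compound exposure at 0.2% DMSO; cells PFA-fixed and O-GlcNAc ICC signal imaged at 488 nm (9 fields/well), Hoechst nuclei counted for toxicity. Thiamet G 200 uM on each plate as maximum; IC50 from non-linear regression.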

The record followed here is patent publication US20200079766A1, “MONOCYCLIC OGA INHIBITOR COMPOUNDS” (Janssen Pharmaceutica NV, priority 2016, published 2020).

Each structure is given as a SMILES string.

Broadly, the Emax is the maximal effect, on the per cent scale that the assay sets. Turning to `CC(=O)Nc1ncc(CN2CC[C@H](Cc3ccnc(F)c3)C2)s1` [compound 56], in test [1], the maximum response (Emax) worked out at 101% and the IC50 was 22.9 nM. Besides, in test [2], the Emax was determined as 90.3% and the EC50 is 64.6 nM.
As to `CC(=O)Nc1ncc(CN2CC[C@H](Cc3ncc(C)nc3C)C2)s1` [compound 58], in test [1], the Emax was 101% and the IC50 is 3.16 nM. Also, in test [2], the Emax was found to be 90.6% and the EC50 was 40.7 nM.
On to `CC(=O)Nc1ncc(CN2CC[C@H](Cc3cc(C)cnn3)C2)s1` [compound 59], for which, in test [1], the Emax was 101% and the IC50 was 25.7 nM. In test [2], the Emax stood at 80.3% and the EC50 was 145 nM.
As to `CC(=O)Nc1ncc(CN2CCC(Cc3cc(C(F)(F)F)cc(C)n3)C2)s1` (stereo not drawn) [compound 60], in test [1], the “Enzymatic Emax (%)” value worked out at 101.3% and the “Enzymatic hOGA; pIC50” value is 7.30. Moreover, in test [2], the “Cellular hOGA; pEC50” value turned out to be 7.03 and the “Cellular Emax (%)” value worked out at 87.4%.
Consider `CC(=O)Nc1ncc(CN2CC[C@H](Cc3ccc(C)nc3)C2)s1` [compound 61], for which, in test [1], the “Enzymatic Emax (%)” value was determined as 101.2% and the “Enzymatic hOGA; pIC50” value is 7.71. Also, in test [2], the “Cellular hOGA; pEC50” value amounted to 7.22 and the “Cellular Emax (%)” value was 96.3%.
Taken in the same sequence, the figures for `CC(=O)Nc1ncc(CN2CC[C@H](Cc3cnc(C)nc3)C2)s1` [compound 62] were 102.4%, 7.93, 7.20 and 81.8%.
`CC(=O)Nc1ncc(CN2CC[C@H](Cc3ccnc(C)c3)C2)s1` [compound 63]: in test [1], the “Enzymatic Emax (%)” value was determined as 101.9% and the “Enzymatic hOGA; pIC50” value is 7.90. For the same compound, in test [2], the “Cellular hOGA; pEC50” value is on record as 7.46 and the “Cellular Emax (%)” value amounted to 90.1%.
Regarding `CC(=O)Nc1ncc(CN2CCC(Cc3cnc(C(F)(F)F)cn3)C2)s1` (stereo not drawn) [compound 64], in test [1], the “Enzymatic Emax (%)” value was 102.9% and the “Enzymatic hOGA; pIC50” value turned out to be 7.34. In addition, in test [2], the “Cellular hOGA; pEC50” value is 7.04 and the “Cellular Emax (%)” value is listed as 89.3%.
For the compound `COc1cncc(CC2CCN(Cc3cnc(NC(C)=O)s3)C2)n1` (stereo not drawn) [compound 66], in test [1], the “Enzymatic Emax (%)” value worked out at 101% and the “Enzymatic hOGA; pIC50” value worked out at 8.53. In addition, in test [2], the “Cellular hOGA; pEC50” value worked out at 7.43 and the “Cellular Emax (%)” value came out at 100.6%.
Regarding `COc1nccnc1CC1CCN(Cc2cnc(NC(C)=O)s2)C1` (stereo not drawn) [compound 67], in test [1], the “Enzymatic Emax (%)” value was found to be 100.9% and the “Enzymatic hOGA; pIC50” value is on record as 7.70. For the same compound, in test [2], the “Cellular hOGA; pEC50” value was 6.92 and the “Cellular Emax (%)” value amounted to 84.5%.
Turning to `CC(=O)Nc1ncc(CN2CC[C@H](Cc3cc(C)c(C)cn3)C2)s1` [compound 69], in test [1], the Emax was determined as 103% and the IC50 is 6.17 nM. Also, in test [2], the Emax turned out to be 101% and the EC50 is 74.1 nM.
Taken in the same sequence, the figures for `CC(=O)Nc1ncc(CN2CC[C@H](Cc3nccc(C)c3C)C2)s1` [compound 70] were 102%, 66.1 nM, 97.7% and 129 nM.
For `CC(=O)Nc1ncc(CN2CC[C@H](Cc3ccc(C)nc3C)C2)s1` [compound 71], in test [1], the Emax is 99.6% and the IC50 is 12 nM. In test [2], the Emax was 94.8% and the EC50 was 36.3 nM.
Regarding `CC(=O)Nc1ncc(CN2CC[C@H](Cc3ccnc(C)c3C)C2)s1` [compound 72], in test [1], the Emax was found to be 102% and the IC50 was 7.94 nM. Besides, in test [2], the Emax was found to be 109% and the EC50 is 32.4 nM.
In the case of `CC(=O)Nc1ncc(CN2CC[C@H](Cc3cc(C)ncc3C(F)(F)F)C2)s1` [compound 73], in test [1], the “Enzymatic Emax (%)” value is on record as 101.4% and the “Enzymatic hOGA; pIC50” value was found to be 7.81. Further, in test [2], the “Cellular hOGA; pEC50” value stood at 6.95 and the “Cellular Emax (%)” value is reported as 94%.
In the case of `CC(=O)Nc1ncc(CN2CC[C@H](Cc3ccncc3C)C2)s1` [compound 74], in test [1], the “Enzymatic Emax (%)” value was found to be 101% and the “Enzymatic hOGA; pIC50” value turned out to be 8.01. In addition, in test [2], the “Cellular hOGA; pEC50” value is 7.34 and the “Cellular Emax (%)” value was 115.8%.
Take `CC(=O)Nc1ncc(CN2CCC(Cc3ncc(F)cc3F)C2)s1` (stereo not drawn) [compound 75]: in test [1], the “Enzymatic Emax (%)” value is 99.3% and the “Enzymatic hOGA; pIC50” value was 7.63. In addition, in test [2], the “Cellular hOGA; pEC50” value turned out to be 7.11 and the “Cellular Emax (%)” value is listed as 104.1%.
Taken in the same sequence, the figures for `CC(=O)Nc1ncc(CN2CC[C@H](Cc3cc(C)nc(C(F)(F)F)c3)C2)s1` [compound 76] were 102.4%, 7.59, 7.56 and 92.3%.
In the case of `CC(=O)Nc1ncc(CN2CCC(Cc3cc(C)nc(C)n3)C2)s1` (stereo not drawn) [compound 77], in test [1], the “Enzymatic Emax (%)” value is reported as 101.8% and the “Enzymatic hOGA; pIC50” value stood at 7.91. Further, in test [2], the “Cellular hOGA; pEC50” value is reported as 7.27 and the “Cellular Emax (%)” value came out at 91.1%.
As for `CCc1cc(C[C@H]2CCN(Cc3cnc(NC(C)=O)s3)C2)cc(C)n1.Cl` [compound 80], in test [1], the “Enzymatic Emax (%)” value came to 101.5% and the “Enzymatic hOGA; pIC50” value is recorded as 8.24. In test [2], the “Cellular hOGA; pEC50” value came out at 7.94 and the “Cellular Emax (%)” value is reported as 90%.
As for `CC(=O)Nc1ncc(CN2CCC(OCc3cc(C)nc(C)c3)C2)s1` (stereo not drawn) [compound 81], in test [1], the Emax is 102% and the IC50 was 72.4 nM. Moreover, in test [2], the Emax worked out at 51.7% and the EC50 was 501 nM.
On to `CC(=O)Nc1ncc(CN2CC[C@H](Cc3ccc(C)nc3C#N)C2)s1` [compound 84], for which, in test [1], the “Enzymatic Emax (%)” value turned out to be 102.6% and the “Enzymatic hOGA; pIC50” value was found to be 8.30. Moreover, in test [2], the “Cellular hOGA; pEC50” value is recorded as 7.43 and the “Cellular Emax (%)” value came to 81.9%.
Consider `CC(=O)Nc1ncc(CN2CC[C@H](Cc3cc(C)cc(C)n3)C2)s1` [compound 85], for which, in test [1], the Emax was 101% and the IC50 was 8.71 nM. In addition, in test [2], the Emax is 86.9% and the EC50 was 46.8 nM.
As for `CC(=O)Nc1ncc(CN2CCC(Cc3cnc(C)c(C)n3)C2)s1` (stereo not drawn) [compound 86], in test [1], the “Enzymatic Emax (%)” value came out at 101.3% and the “Enzymatic hOGA; pIC50” value is 8.49. In test [2], the “Cellular hOGA; pEC50” value is 7.4 and the “Cellular Emax (%)” value is recorded as 83.5%.
As to `CC(=O)Nc1ncc(CN2CCC(COc3cc(C)nc(C)c3)C2)s1` (stereo not drawn) [compound 89], in test [1], the Emax came to 100% and the IC50 is 26.3 nM. Besides, in test [2], the Emax was 72.4% and the EC50 was 81.3 nM.
Turning to `CC(=O)Nc1ncc(CN2CCC(Cc3ccc(C)nn3)C2)s1` (stereo not drawn) [compound 90], in test [1], the “Enzymatic Emax (%)” value came out at 100% and the “Enzymatic hOGA; pIC50” value came to 7.77. Moreover, in test [2], the “Cellular hOGA; pEC50” value was 6.83 and the “Cellular Emax (%)” value amounted to 73.7%.
The like results for `CC(=O)Nc1ncc(CN2CCC(Cc3cnc(C#N)cn3)C2)s1` (stereo not drawn) [compound 91] were, in that order, 102%, 8.21, 7.28 and 102.1%.
In the case of `CC(=O)Nc1ncc(CN2CC[C@H](Cc3cnc(C(=O)NC(C)(C)C)cn3)C2)s1` [compound 92], in test [1], the Emax was 99.7% and the IC50 is 22.4 nM. Moreover, in test [2], the Emax was 92.6% and the EC50 was 81.3 nM.
With `CC(=O)Nc1ncc(CN2CCC(Cc3cncnc3C)C2)s1` (stereo not drawn) [compound 103], in test [1], the Emax was determined as 103% and the IC50 is 46.8 nM. Further, in test [2], the Emax was determined as 86.9% and the EC50 is 132 nM.
Turning to `CC(=O)Nc1ncc(CN2CCC(Cc3ncc(F)cc3C)C2)s1` (stereo not drawn) [compound 104], in test [1], the Emax was 102% and the IC50 is 20 nM. In test [2], the Emax amounted to 89.4% and the EC50 is 58.9 nM.
